Measurements published in patent publication US20180305332A1, “Bispiperidinyl Derivatives as Liver X Receptor Beta Agonists, Compositions, and Their Use” (Merck Sharp & Dohme Corp., priority 2015, published 2018).

Tests used:
[1] = biological target: T1, GST tagged LXRalpha LBD (ligand binding domain) (Homo sapiens, UniProt Q13133); test: LanthaScreen TR-FRET Liver X Receptor Coactivator Assay, LXR alpha-LBD; format: biochemical; details: relative to reference T0901317; for EC50 / LXR alpha IP (nM): Inflection Point (potency), co-activator recruitment; for EC50: read-out: LXR alpha IP; for Emax: read-out: LXR alpha act @ max dose (%)
T1 construct: purchased Invitrogen pv4655
T1 sequence (Q13133 209-447 limits assumed): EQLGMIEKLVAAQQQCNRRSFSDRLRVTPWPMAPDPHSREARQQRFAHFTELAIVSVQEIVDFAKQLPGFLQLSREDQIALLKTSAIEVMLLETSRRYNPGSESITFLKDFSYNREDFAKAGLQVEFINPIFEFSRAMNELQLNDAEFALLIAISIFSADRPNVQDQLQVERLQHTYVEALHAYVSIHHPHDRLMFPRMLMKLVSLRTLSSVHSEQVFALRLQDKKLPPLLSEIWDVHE
Method: (§1) Potency (Inflection Point, IP) and efficacy (Emax) are evaluated via compound-induced co-activator recruitment to glutathione-S-transferase (GST) tagged LXRbeta and LXRalpha LBD (ligand binding domain) proteins in relation to reference dual agonist compound T0901317 (N-(2,2,2-Trifluoroethyl)-N-[4-[2,2,2-trifluoro-1-hydroxy-1-(trifluoromethyl)ethyl] phenyl]benzenesulfonamide) using the LanthaScreen™ TR-FRET Liver X Receptor Coactivator Assays according to manufacturer's instructions (Invitrogen catalog number pv4658.pps and pv4655). While running the LanthaScreen™ TR-FRET Liver X Receptor Coactivator Assay, LXR alpha-LBD or LXR beta-LBD was added to ligand test compounds followed by addition of a mixture of a fluorescein-labelled coactivator peptide and terbium-conjugated anti-GST antibody. After an incubation period at room temperature, TR-FRET (time-resolved fluorescence resonance energy transfer) was measured using a filter-based instrument capable of TR-FRET, e.g. PerkinElmer Envision.

[2] = biological target: T2, GST tagged LXRbeta LBD (ligand binding domain) (Homo sapiens, UniProt P55055); test: LanthaScreen TR-FRET Liver X Receptor Coactivator Assay, LXR beta-LBD; format: biochemical; details: relative to reference T0901317; for EC50: Inflection Point (potency), co-activator recruitment, read-out: LXR beta IP; for Emax / LXR beta act @ max dose (%): activity at max dose (efficacy); for Emax: read-out: LXR beta act @ max dose (%)
T2 construct: purchased Invitrogen pv4658.pps
T2 sequence (P55055 222-460 limits assumed): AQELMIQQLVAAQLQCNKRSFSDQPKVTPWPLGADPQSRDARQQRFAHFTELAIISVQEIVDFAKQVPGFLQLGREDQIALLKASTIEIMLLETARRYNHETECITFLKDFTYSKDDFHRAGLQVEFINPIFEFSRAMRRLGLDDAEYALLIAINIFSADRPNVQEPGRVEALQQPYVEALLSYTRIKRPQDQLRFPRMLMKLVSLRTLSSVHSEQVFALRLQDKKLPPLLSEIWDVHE
Method: as §1

[3] = activity at max dose (efficacy)

| SMILES | EC50 [1] [nM] | Emax [1, 3] [%] | EC50 [2] [nM] | Emax [2] [%] | LXR alpha IP (nM) [1] | LXR alpha act @ max dose (%) [1, 3] [%] | LXR beta act @ max dose (%) [2] [%] |
| --- | --- | --- | --- | --- | --- | --- | --- |
| CC(C)C(O)(C(=O)N1CCC(C2CCN(c3cc(Cl)c(C(=O)N(C)C)c(Cl)c3)CC2)CC1)C(F)(F)F (centres unmarked) [Example A-34, 2,6-dichloro-4-{1′-[2-hydroxy-3-methyl-2-(trifluoromethyl)butanoyl]-4,4′-bipiperidin-1-yl}-N,N-dimethylbenzamide] | 1350 | 46 | 119 | 103 | – | – | – |
| CCCC(O)(C(=O)N1CCC(C2CCN(c3ccc(C(=O)N(C)C)c(Cl)c3)CC2)CC1)C(F)(F)F (centres unmarked) [Example A-70, 2-chloro-4-{1′-[2-hydroxy-2-(trifluoromethyl)pentanoyl]-4,4′-bipiperidin-1-yl}-N,N-dimethylbenzamide] | 3000 | 52 | 177 | 109 | – | – | – |
| CC(C)C(O)(C(=O)N1CCC(C2CCN(c3ccc(C(=O)N(C)C)c(Cl)c3)CC2)CC1)C(F)(F)C(F)(F)F (centres unmarked) [Example A-26, 2-chloro-N,N-dimethyl-4-{1′-[3,3,4,4,4-pentafluoro-2-hydroxy-2-(1-methylethyl)butanoyl]-4,4′-bipiperidin-1-yl}benzamide] | 967 | 45 | 112 | 103 | – | – | – |
| CN(C)C(=O)c1ccc(N2CCC(C3CCN(C(=O)C(C)(C)C(F)(F)F)CC3)CC2)cc1Cl [Example A-41, 2-chloro-N,N-dimethyl-4-[1′-(3,3,3-trifluoro-2,2-dimethylpropanoyl)-4,4′-bipiperidin-1-yl]benzamide] | 3390 | 71 | 84 | 112 | – | – | – |
| CN(C)C(=O)c1ccc(N2CCC(C3CCN(C(=O)C(F)(F)c4ccc(F)cc4)CC3)CC2)cc1Cl [Example A-63, 2-chloro-4-{1′-[difluoro(4-fluorophenyl)acetyl]-4,4′-bipiperidin-1-yl}-N,N-dimethylbenzamide] | 2880 | 52 | 218 | 114 | – | – | – |
| CN(C)C(=O)c1ccc(N2CCC(C3CCN(C(=O)C4(c5ccc(O)cc5)CCCC4)CC3)CC2)cc1Cl [Example A-67, 2-chloro-4-(1′-{[1-(4-hydroxyphenyl)cyclopentyl]carbonyl}-4,4′-bipiperidin-1-yl)-N,N-dimethylbenzamide] | – | 26 | 107 | 75 | NO IP | – | – |
| CCCC(O)(C(=O)N1CCC(C2CCN(c3ccc(C(=O)N(C)C)c(Cl)c3)CC2)CC1)C(F)(F)F (centres unmarked) [Example A-84, 2-chloro-4-{1′-[2-hydroxy-2-(trifluoromethyl)pentanoyl]-4,4′-bipiperidin-1-yl}-N,N-dimethylbenzamide] | 1370 | – | 173 | – | – | 63 | 116 |
| CN(C)C(=O)c1ccc(N2CCC(C3CCN(C(=O)C4(C(F)(F)F)CCC4)CC3)CC2)cc1Cl [Example A-29, 2-chloro-N,N-dimethyl-4-(1′-{[1-(trifluoromethyl)cyclobutyl]carbonyl}-4,4′-bipiperidin-1-yl)benzamide] | 3580 | 46 | 526 | 106 | – | – | – |
| CN(C)C(=O)c1ccc(N2CCC(C3CCN(C(=O)C4(C(F)(F)F)CCCC4)CC3)CC2)cc1Cl [Example A-28, 2-chloro-N,N-dimethyl-4-(1′-{[1-(trifluoromethyl)cyclopentyl]carbonyl}-4,4′-bipiperidin-1-yl)benzamide] | 2470 | 73 | 173 | 123 | – | – | – |
| CN(C)C(=O)c1ccc(N2CCC(C3CCN(C(=O)C45CC(C4)C5)CC3)CC2)cc1Cl [Example A-15, 4-[1′-(bicyclo[1.1.1]pent-1-ylcarbonyl)-4,4′-bipiperidin-1-yl]-2-chloro-N,N-dimethylbenzamide] | 3130 | 31 | 314 | 93 | – | – | – |
| CC(C)CC(O)(C(=O)N1CCC(C2CCN(c3ccc(C(=O)N(C)C)c(Cl)c3)CC2)CC1)C(F)(F)F (centres unmarked) [Example A-5, 2-chloro-4-{1′-[2-hydroxy-4-methyl-2-(trifluoromethyl)pentanoyl]-4,4′-bipiperidin-1-yl}-N,N-dimethylbenzamide] | 869 | 55 | 51 | – | – | – | 113 |

The remaining lines, values ahead:

| EC50 [1] [nM] | Emax [1, 3] [%] | EC50 [2] [nM] | Emax [2] [%] | LXR alpha IP (nM) [1] | LXR alpha act @ max dose (%) [1, 3] [%] | LXR beta act @ max dose (%) [2] [%] | SMILES |
| --- | --- | --- | --- | --- | --- | --- | --- |
| 2380 | 21 | 208 | 89 | – | – | – | CCCCN(C)C(=O)c1ccc(N2CCC(C3CCN(C(=O)[C@](O)(c4ccccc4)C(F)(F)F)CC3)CC2)cc1Cl [Example E-59, N-butyl-2-chloro-N-methyl-4-{1′-[(2R)-3,3,3-trifluoro-2-hydroxy-2-phenylpropanoyl]-4,4′-bipiperidin-1-yl}benzamide] |
| 21 | 24 | 148 | 101 | – | – | – | Cc1nc(N2CCC(C3CCN(C(=O)C(O)(C(C)C)C(F)(F)F)CC3)CC2)ccc1C(=O)N(C)C (centres unmarked) [Example C-1, 6-(1′-(2-Hydroxy-3-methyl-2-(trifluoromethyl)butanoyl)-[4,4′-bipiperidin]-1-yl)-N,N,2-trimethylnicotinamide] |
| 1110 | 41 | 66 | 106 | – | – | – | Cc1nc(CCN(C)C(=O)c2ccc(N3CCC(C4CCN(C(=O)[C@](O)(c5ccccc5)C(F)(F)F)CC4)CC3)cc2Cl)no1 [Example E-55, 2-chloro-N-methyl-N-[2-(5-methyl-1,2,4-oxadiazol-3-yl)ethyl]-4-{1′-[(2R)-3,3,3-trifluoro-2-hydroxy-2-phenylpropanoyl]-4,4′-bipiperidin-1-yl}benzamide] |
| 1460 | 25 | 98 | 39 | – | – | – | O=C(c1ccc(N2CCC(C3CCN(C(=O)[C@](O)(c4ccccc4)C(F)(F)F)CC3)CC2)cc1Cl)N1CC(N2CCCC2)C1 [Example E-42, (2R)-3-(1′-{3-chloro-4-[(3-pyrrolidin-1-ylazetidin-1-yl)carbonyl]phenyl}-4,4′-bipiperidin-1-yl)-1,1,1-trifluoro-3-oxo-2-phenylpropan-2-ol] |
| 1380 | 30 | 184 | 77 | – | – | – | CN(Cc1nccs1)C(=O)c1ccc(N2CCC(C3CCN(C(=O)[C@](O)(c4ccccc4)C(F)(F)F)CC3)CC2)cc1Cl [Example E-49, 2-chloro-N-methyl-N-(1,3-thiazol-2-ylmethyl)-4-{1′-[(2R)-3,3,3-trifluoro-2-hydroxy-2-phenylpropanoyl]-4,4′-bipiperidin-1-yl}benzamide] |
| 2240 | 87 | 34 | 121 | – | – | – | CN(C)C(=O)c1ccc(N2CCC(C3CCN(C(=O)C(O)(C(F)(F)F)C(F)(F)F)CC3)CC2)nc1Cl [Example B-15, 2-chloro-N,N-dimethyl-6-{1′-[3,3,3-trifluoro-2-hydroxy-2-(trifluoromethyl)propanoyl]-4,4′-bipiperidin-1-yl}pyridine-3-carboxamide] |
| – | 28 | 291 | 95 | NO IP | – | – | CN(C)C(=O)c1ccc(N2CCC(C3CCN(C(=O)C(O)(c4ccccc4)C(F)(F)F)CC3)CC2)nc1Cl (centres unmarked) [Example B-13, 2-chloro-N,N-dimethyl-6-[1′-(3,3,3-trifluoro-2-hydroxy-2-phenylpropanoyl)-4,4′-bipiperidin-1-yl]pyridine-3-carboxamide] |
| – | 5 | 216 | 70 | NO IP | – | – | O=C(c1ccc(N2CCC(C3CCN(C(=O)[C@](O)(c4ccccc4)C(F)(F)F)CC3)CC2)cc1Cl)N1CCCC2(CC2)C1 [Example E-37, (2R)-3-{1′-[4-(5-azaspiro[2.5]oct-5-ylcarbonyl)-3-chlorophenyl]-4,4′-bipiperidin-1-yl}-1,1,1-trifluoro-3-oxo-2-phenylpropan-2-ol] |
| 1260 | 32 | 219 | 72 | – | – | – | CC(C)C(O)(C(=O)N1CCC(C2CCN(c3ccc(C(=O)N4CCOC[C@H]4C)c(Cl)c3)CC2)CC1)C(F)(F)F (stereo partly drawn) [Example E-10, 2-{[1′-(3-chloro-4-{[(3R)-3-methylmorpholin-4-yl]carbonyl}phenyl)-4,4′-bipiperidin-1-yl]carbonyl}-1,1,1-trifluoro-3-methylbutan-2-ol] |
